Test results published in article PMC4594013 (Frontiers in Pharmacology, 2015).
Entries after “also recorded” stand apart in the source; their conditions may differ. Counter-ions that a name gives are not always drawn.

Legend:
OAT2-tv1 [1] = biological target: T1, OAT2-tv1 (Homo sapiens, UniProt Q9Y694); assay: Inhibition of [3H]penciclovir uptake into CHO-OAT2-tv1 cells; type: cell-based; conditions: CHO-OAT2-tv1 cells; test compound 1 mM; [3H]penciclovir ∼30 nM; 5 min
T1 sequence (Q9Y694 1-546 isoform Q9Y694-2): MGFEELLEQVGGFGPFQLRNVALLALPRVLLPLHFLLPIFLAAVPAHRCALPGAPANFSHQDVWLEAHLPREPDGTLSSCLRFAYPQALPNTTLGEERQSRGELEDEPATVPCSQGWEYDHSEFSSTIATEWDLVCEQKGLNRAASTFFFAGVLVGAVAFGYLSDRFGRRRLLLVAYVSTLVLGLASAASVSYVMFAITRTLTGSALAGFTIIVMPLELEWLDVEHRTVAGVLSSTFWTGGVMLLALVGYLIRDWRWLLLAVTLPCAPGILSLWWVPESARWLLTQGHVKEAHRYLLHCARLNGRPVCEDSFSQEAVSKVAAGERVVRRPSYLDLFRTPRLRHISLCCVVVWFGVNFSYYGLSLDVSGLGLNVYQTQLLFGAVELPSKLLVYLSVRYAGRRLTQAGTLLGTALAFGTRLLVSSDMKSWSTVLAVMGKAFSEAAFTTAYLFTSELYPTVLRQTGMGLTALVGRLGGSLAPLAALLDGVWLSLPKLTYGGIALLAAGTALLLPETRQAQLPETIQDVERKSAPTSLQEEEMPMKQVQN
Procedure: (§1) All experiments examining cellular radiolabeled compound uptake were conducted using cells grown to confluence in 24-well flat bottom plates. The transport solution consisted of WB (room temperature) containing radiolabeled compound and the uptake period for all experiments was at an initial rate time point of 5 min. [^3H]Penciclovir served as the probe OAT2 substrate. We also examined the uptake of [^3H]para-aminohippurate, [^3H]estrone-3-sulfate, [^14C]glutarate, [^14C]succinate, [^3H]paclitaxel, and [^3H]dehydroepiandrosterone sulfate by OAT2 since published studies indicate that they are substrates of the transport protein ([Sun et al., 2001]; [Kobayashi et al., 2005a]). […] For all cellular uptake experiments, the medium was aspirated and the cells were rinsed once with WB (0.3 ml). Following the uptake period, cells were washed three times with ice-cold WB (0.5 ml each wash). After aspirating the final wash the cells were lysed in 0.5 N NaOH/1% SDS (0.4 ml) for ∼30 min on an orbital shaker. 1 N HCl (0.2 ml) was then added to neutralize the NaOH, and the cell lysates (0.5 ml) were transferred to scintillation vials containing liquid scintillation cocktail (CytoScint ES, MP Biomedicals). Cellular radioactivity content was determined with a Beckman LS6500 liquid scintillation counter. Protein content was determined using the bicinchoninic acid method. See the Figure and Table Legends for additional details describing the experimental conditions used.
The concentration of each Kreb’s cycle intermediate was 1 mM. Uptake was conducted for 5 min.

OAT2-tv1 [2] = biological target: T1, OAT2-tv1; set-up: The open reading frame of the human ortholog of OAT2 transcript variant 1 (OAT2-tv1) containing 546 amino acids was amplified from human kidney cDNA; expressed in transfected cells; host or cells: CHO Flp-In (A1); CHO, HEK and MDCK Flp-In (A2); conditions: ref Babelova et al., 2015; cited from earlier work
[3] = system: OAT2 (sequence not given); conditions: variant unclear; ref Sun et al., 2001; cited from earlier work
CHO parental cells = assay: Cellular accumulation of radiolabeled compounds in CHO parental cells; type: cell-based, Chinese hamster; conditions: [3H]dehydroepiandrosterone sulfate 12 nM, [3H]paclitaxel 22 nM, n = 3
OAT2-tv1 [4] = biological target: T1, OAT2-tv1; assay: Cellular uptake of radiolabeled compounds by CHO, HEK or MDCK cells stably expressing OAT2-tv1
Procedure: as §1
FIGURE 2 Cellular accumulation of [^3H]penciclovir (A), [^3H]para-aminohippurate (B), [^3H]estrone-3-sulfate (C), or [^14C]glutarate (D) by parental CHO, HEK, or MDCK cells, or CHO, HEK, or MDCK cells stably expressing either OAT2-tv1 or OAT2-tv2. The concentration of [^3H]penciclovir in the transport solution was 0.1 μM for CHO and MDCK cell experiments, and 0.5 μM for HEK cell experiments. The concentrations of [^3H]para-aminohippurate, [^3H]estrone-3-sulfate and [^14C]glutarate were 8 nM, 10 nM, and 18 μM, respectively. Uptake was conducted for 5 min at room temperature.
FIGURE 4 Cellular accumulation of [^14C]succinate (18.5 μM) by CHO parental cells, CHO-OAT2-tv1 cells or CHO cells stably expressing the Na-dicarboxylate cotransporter 3 (NaDC3). Uptake was conducted for 5 min. Values are the mean ± standard error of the mean of four experiments for CHO parental and CHO-OAT2-tv1 cells. A single uptake experiment was performed with CHO-NaDC3 cells.

OAT2-tv3 = system: OAT2-tv3; set-up: method as in Sato et al., 2010; conditions: OAT2-tv3 in HEK cells pre-loaded with succinate (100 mM); ref Sato et al., 2010; cited from earlier work
OAT2-tv2 = biological target: T2, OAT2-tv2 (Homo sapiens, UniProt Q9Y694); set-up: method as in Kobayashi et al., 2005a; conditions: OAT2-tv2 in Xenopus oocytes pre-loaded with 5 mM compound; ref Kobayashi et al., 2005a; cited from earlier work
T2 sequence (Q9Y694 1-548): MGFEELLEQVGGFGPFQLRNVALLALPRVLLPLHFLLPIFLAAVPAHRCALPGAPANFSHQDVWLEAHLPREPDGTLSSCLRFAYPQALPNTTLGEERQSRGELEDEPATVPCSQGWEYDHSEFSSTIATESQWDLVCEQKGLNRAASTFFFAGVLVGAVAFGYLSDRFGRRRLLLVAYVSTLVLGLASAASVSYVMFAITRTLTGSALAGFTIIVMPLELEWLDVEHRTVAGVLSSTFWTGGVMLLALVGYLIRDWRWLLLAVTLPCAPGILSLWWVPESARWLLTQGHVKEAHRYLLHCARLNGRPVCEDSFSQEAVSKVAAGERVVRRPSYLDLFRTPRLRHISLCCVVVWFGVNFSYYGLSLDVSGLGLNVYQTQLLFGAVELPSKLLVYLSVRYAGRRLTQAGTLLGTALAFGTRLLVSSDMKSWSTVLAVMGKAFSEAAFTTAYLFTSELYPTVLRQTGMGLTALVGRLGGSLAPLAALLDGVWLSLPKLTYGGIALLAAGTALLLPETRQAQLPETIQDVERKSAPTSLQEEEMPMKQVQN

[5] = biological target: Na-dicarboxylate cotransporter 3 (NaDC3) (Homo sapiens, UniProt Q8WWT9); conditions: CHO-NaDC3 cells; [14C]succinate 18.5 μM; 5 min; single experiment (n = 1)
Procedure: as §1, with “See the Figure and Table Legends for additional details describing the experimental conditions used.” left out

Chain of Na-dicarboxylate cotransporter 3 (NaDC3) (Q8WWT9 whole entry, species assumed): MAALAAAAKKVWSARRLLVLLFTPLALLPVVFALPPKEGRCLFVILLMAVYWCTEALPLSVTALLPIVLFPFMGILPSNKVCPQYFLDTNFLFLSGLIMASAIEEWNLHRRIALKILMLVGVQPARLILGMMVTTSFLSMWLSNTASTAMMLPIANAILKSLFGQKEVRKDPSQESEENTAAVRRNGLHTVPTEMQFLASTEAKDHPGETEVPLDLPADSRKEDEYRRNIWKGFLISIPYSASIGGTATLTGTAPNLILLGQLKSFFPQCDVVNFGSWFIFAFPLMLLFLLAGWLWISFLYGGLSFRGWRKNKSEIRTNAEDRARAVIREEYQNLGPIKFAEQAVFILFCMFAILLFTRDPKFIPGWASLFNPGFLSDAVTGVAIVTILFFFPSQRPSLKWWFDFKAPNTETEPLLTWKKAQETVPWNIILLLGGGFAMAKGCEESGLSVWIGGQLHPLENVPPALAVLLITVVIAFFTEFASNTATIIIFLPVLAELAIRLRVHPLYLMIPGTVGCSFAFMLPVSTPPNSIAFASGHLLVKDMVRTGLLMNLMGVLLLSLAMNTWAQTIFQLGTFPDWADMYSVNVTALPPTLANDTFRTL

SMILES: O=C(O)/C=C(/CC(=O)O)C(=O)O [cis-aconitate]
- cis-inhibition of penciclovir uptake (OAT2-tv1 [1]): none of the Kreb’s cycle intermediates tested, including succinate and fumarate, cis-inhibited penciclovir uptake
- cis-inhibition of OAT2-tv1-mediated cGMP transport (OAT2-tv1 [2]): did not observe cis-inhibition

SMILES: O=C(O)CC(O)(CC(=O)O)C(=O)O [citrate]
- cis-inhibition of penciclovir uptake (OAT2-tv1 [1]): none of the Kreb’s cycle intermediates tested, including succinate and fumarate, cis-inhibited penciclovir uptake
- cis-inhibition of OAT2-tv1-mediated cGMP transport (OAT2-tv1 [2]): did not observe cis-inhibition

SMILES: C[C@]12CC[C@H](OS(=O)(=O)O)CC1=CC[C@@H]1[C@@H]2CC[C@]2(C)C(=O)CC[C@@H]12 [dehydroepiandrosterone sulfate]
- transport by OAT2 [3]: did not observe transport
- cellular accumulation (CHO parental cells): 10.3 ± 1.1 fmoles ⋅ mg protein^-1 ⋅ min^-1
- cellular accumulation (OAT2-tv1 [4]; CHO-OAT2-tv1 cells, [3H]dehydroepiandrosterone sulfate 12 nM, [3H]paclitaxel 22 nM, n = 3): 11.0 ± 0.54 fmoles ⋅ mg protein^-1 ⋅ min^-1
- mediated transport by OAT2-tv1 (OAT2-tv1 [4]; expressed in CHO cells): unable to show mediated transport

SMILES: O=C(O)CCC(=O)O [succinate]
- stimulation of urate uptake by pre-loading (OAT2-tv3): failed to observe stimulation
- cis-inhibition of penciclovir uptake (OAT2-tv1 [1]): none of the Kreb’s cycle intermediates tested, including succinate and fumarate, cis-inhibited penciclovir uptake
- stimulation of estrone-3-sulfate uptake by pre-loading (OAT2-tv2): 2.1 fold
- uptake of [14C]succinate, fold higher than control [5]: ~30 fold
- uptake of [14C]succinate compared to parental CHO cells (OAT2-tv1 [4]; CHO-OAT2-tv1 cells, [14C]succinate 18.5 μM, 5 min): not different than uptake into the parental CHO cells; also recorded: no significant difference; also recorded: not transported
